The results in this text go back to patent publication US20100120775A1, “Farnesoid X Receptor Agonists” (SMITHKLINE BEECHAM CORPORATION, priority 2006, published 2010).

A value given as a limit tells only on which side of the number the result lay.

The first test has as its target T1, Human FXRα Ligand Binding Domain (Homo sapiens, UniProt Q96RI1).
T1 construct: polyhistidine (pRSET-A vector) (N); made in house; host or cells: E. coli BL21 (DE3), pRSET-A vector
T1 sequence (Q96RI1 237-472 isoform Q96RI1-2): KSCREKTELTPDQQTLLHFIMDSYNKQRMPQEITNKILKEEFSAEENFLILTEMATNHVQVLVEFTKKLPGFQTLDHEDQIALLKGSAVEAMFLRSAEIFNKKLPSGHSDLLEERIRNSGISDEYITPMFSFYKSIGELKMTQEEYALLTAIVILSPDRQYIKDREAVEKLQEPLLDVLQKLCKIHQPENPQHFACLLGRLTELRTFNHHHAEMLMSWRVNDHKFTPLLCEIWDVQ
In words: FXR Cofactor Binding Assay (FXR LBD / SRC-1 peptide, time resolved fluorescence). The settings on record: FXRα LBD with biotinylated SRC-1 (LCD2, 676-700) peptide. From the text: Determination of a ligand mediated cofactor peptide interaction to quantify ligand binding to the nuclear receptor Farnesoid X Receptor (FXR). The method measures the ability of putative ligands to modulate the interaction between the purified bacterial expressed FXRα ligand binding domain (LBD) and a synthetic biotinylated peptide based on residues 676-700 of steroid receptor coactivator-1 (SRC-1) (LXXLL-containing domain-2 where L is the amino acid leucine and X indicates any other amino acid (LCD2), 676-700). The sequence of the SRC-1 peptide used is as published in Iannone, M. A., et al., 2001 Cytometry 44:326-337 where the N-terminus was biotinylated (B) and the C-terminus was amidated. Detection of the associated complex was measured by time resolved fluorescence (TRF). The purified LBD of FXR was labeled with biotin then mixed with stoichiometric amounts of allophycocyanin (APC) labeled streptavidin (Molecular Probes). The biotinylated peptide was then mixed with a ½ stoichiometric amount of europium labeled streptavidin (Wallac Inc). Each was then blocked with a 5 fold excess of biotin and allowed to equilibrate for 15 min. Equimolar amounts of receptor and peptide were mixed together and were allowed to equilibrate for at least 30 min prior to the addition to either a variable or constant concentrations of the sample for which the affinity is to be determined. After equilibration, the time-resolved fluorescent signal was quantitated using a fluorescent plate reader. The affinity of the test compound was estimated from a plot of fluorescence versus concentration of test compound added.
A basal level of FXR: peptide formation is observed in the absence of added ligand. Ligands that promote the complex formation induce a concentration-dependent increase in time-resolved fluorescent signal. Compounds which bind equally well to both monomeric FXR and to the FXR: peptide complex would be expected to give no change in signal, whereas ligands which bind preferentially to the monomeric receptor would be expected to induce a concentration-dependent decrease in the observed signal.
Human FXRα Ligand Binding Domain (FXRα LBD) was expressed in E. coli strain BL21 (DE3) as an amino-terminal polyhistidine tagged fusion protein. Expression was under the control of an isopropyl-13-D-thiogalactopyranoside (IPTG) inducible T7 promoter. DNA encoding this recombinant protein is subcloned into the pRSET-A expression vector (Invitrogen). The coding sequence of Human FXRα LBD was derived from Genbank accession number U 68233 (amino acids 237 to 472).
Routinely, 30-40 g cell paste (equivalent to 2-3 liters of the fermentation batch) was resuspended in 200-250 mL Tris buffered saline (TBS), pH 7.2 (25 mM Tris-hydroxymethylamino methane (Tris), 150 mM sodium chloride). Cells were lysed by passing 3 times through a French Press and cell debris was removed by centrifugation (30 minutes, 20,000×gravity, 4° C.). The cleared supernatant was filtered through course pre-filters, and TBS, pH 7.2, 500 mM imidazole was added to obtain a final imidazole concentration of 50 mM. This lysate was loaded onto a column (6×8 cm) packed with Sepharose [Ni^|| charged]Chelation resin (Pharmacia) and pre-equilibrated with TBS pH 7.2/50 mM imidazole. After washing to baseline absorbance with equilibration buffer, the column was washed with one column volume of TBS pH 7.2 containing 90 mM imidazole. FXRα LBD was eluted directly with 365 mM imidazole. Column fractions were pooled and dialyzed against TBS, pH 7.2, containing 0.5 mM EDTA and 5 mM DTT. The dialyzed protein sample was concentrated using Centri-prep 10 K (Amicon) and subjected to size exclusion, using a column (3×90 cm) packed with Sepharose S-75 resin (Pharmacia) pre-equilibrated with TBS, pH 7.2, containing 0.5 mM ethylene diamine tetraacetic acid (EDTA) and 5 mM dithiothreitol (DTT). […]
`CC(C)c1onc(-c2c(Cl)cccc2Cl)c1COc1ccc(-c2ccc3nc(C(=O)O)ccc3c2)cc1` [Example 1h, Potassium 6-[4-({[3-(2,6-Dichlorophenyl)-5-(1-methylethyl)-4-isoxazolyl]methyl}oxy)phenyl]-2-quinolinecarboxylic Acid]: the “Activity (pEC50)” value is “++ (++ indicates a pEC50 6-6.99)”.

In the case of `CC(C)c1onc(-c2c(Cl)cccc2Cl)c1COc1ccc(-c2ccc3nc(C(=O)O)ccc3c2)cc1` [Example 1i, Sodium 6-[4-({[3-(2,6-dichlorophenyl)-5-(1-methylethyl)-4-isoxazolyl]methyl}oxy)phenyl]-2-quinolinecarboxylate], the “Activity (pEC50)” value is reported as “++ (++ indicates a pEC50 6-6.99)”.

The test is the same for the next values; noted with them: FXRα LBD with biotinylated SRC-1 (LCD2, 676-700) peptide, read-out: Activity (pEC50) (converted).
Take `CC(C)c1onc(-c2c(Cl)cccc2Cl)c1COc1ccc(-c2ccc3c(C(=O)O)cc(C(=O)O)nc3c2)cc1` [Example 3, 7-[4-({[3-(2,6-Dichlorophenyl)-5-(1-methylethyl)-4-isoxazolyl]methyl}oxy)phenyl]-2,4-quinolinedicarboxylic acid]: the EC50 was 0.102 to 1 µM.

Consider `CC(C)c1onc(CSc2c(Cl)cccc2Cl)c1COc1ccc(-c2ccc3nc(C(=O)O)ccc3c2)cc1` [Example 22, 6-[4-({[3-{[(2,6-Dichlorophenyl)thio]methyl}-5-(1-methylethyl)-4-isoxazolyl]methyl}oxy)phenyl]-2-quinolinecarboxylic acid], for which the EC50 is 0.102 to 1 µM.

Consider `CC(C)c1onc(-c2c(Cl)cccc2Cl)c1COc1ccc(-c2ccc3c(C(=O)O)ccnc3c2)cc1` [Example 4, 7-[4-({[3-(2,6-Dichlorophenyl)-5-(1-methylethyl)-4-isoxazolyl]methyl}oxy)phenyl]-4-quinolinecarboxylic acid], for which the EC50 is 0.102 to 1 µM.

For the compound `CC(C)c1onc(-c2c(Cl)cccc2Cl)c1COc1ccc(-c2ccc3c(C(=O)O)nccc3c2)cc1` [Example 36, 6-[4-({[3-(2,6-Dichlorophenyl)-5-(1-methylethyl)-4-isoxazolyl]methyl}oxy)phenyl]-1-isoquinolinecarboxylic acid], the EC50 was 0.102 to 1 µM.

With `Cc1nc2ccc(-c3ccc(OCc4c(-c5c(Cl)cccc5Cl)noc4C(C)C)cc3)cc2cc1C(=O)O` [Example 35, 6-[4-({[3-(2,6-Dichlorophenyl)-5-(1-methylethyl)-4-isoxazolyl]methyl}oxy)phenyl]-2-methyl-3-quinolinecarboxylic acid], the EC50 is 0.102 to 1 µM.

As to `O=C(O)c1ccc2cc(-c3ccc(OCc4c(C5CCCC5)noc4C4CCCC4)cc3)ccc2n1` [Example 26, 6-(4-{[(3,5-Dicyclopentyl-4-isoxazolyl)methyl]oxy}phenyl)-2-quinolinecarboxylic acid], the EC50 is 0.102 to 1 µM.

For `Cc1nc(C(=O)O)nc2ccc(-c3ccc(OCc4c(-c5c(Cl)cccc5Cl)noc4C(C)C)cc3)cc12` [Example 37, 6-[4-({[3-(2,6-Dichlorophenyl)-5-(1-methylethyl)-4-isoxazolyl]methyl}oxy)phenyl]-4-methyl-2-quinazolinecarboxylic acid], the EC50 was 0.102 to 1 µM.

For the compound `CC(C)c1onc(COC2CCCC2)c1COc1ccc(-c2ccc3nc(C(=O)O)ccc3c2)cc1` [Example 27, 6-[4-({[3-[(Cyclopentyloxy)methyl]-5-(1-methylethyl)-4-isoxazolyl]methyl}oxy)phenyl]-2-quinolinecarboxylic acid], the EC50 is 1.02 to 10 µM.

For `O=C(O)c1ccc2cc(-c3ccc(OCc4c(-c5c(Cl)cccc5Cl)noc4C4CC4)cc3)ccc2n1` [Example 11, 6-[4-({[5-Cyclopropyl-3-(2,6-dichlorophenyl)-4-isoxazolyl]methyl}oxy)phenyl]-2-quinolinecarboxylic acid], the EC50 was 0.102 to 1 µM.

Regarding `CC(C)c1onc(-c2c(Cl)cncc2Cl)c1COc1ccc(-c2ccc3nc(C(=O)O)ccc3c2)cc1` [Example 25, 6-[4-({[3-(3,5-Dichloro-4-pyridinyl)-5-(1-methylethyl)-4-isoxazolyl]methyl}oxy)phenyl]-2-quinolinecarboxylic acid], the EC50 is 0.102 to 1 µM.

Regarding `CC(C)c1onc(-c2c(Cl)cccc2Cl)c1COc1ccc(-c2cc3ccc(C(=O)O)nc3cc2F)cc1` [Example 30, 6-[4-({[3-(2,6-Dichlorophenyl)-5-(1-methylethyl)-4-isoxazolyl]methyl}oxy)phenyl]-7-fluoro-2-quinolinecarboxylic acid], the EC50 is 0.102 to 1 µM.

Consider `O=C(O)c1cc2ccc(-c3ccc(OCc4c(-c5c(Cl)cncc5Cl)noc4C4CCC4)cc3)cc2cn1` [Example 9, 7-[4-({[5-Cyclobutyl-3-(3,5-dichloro-4-pyridinyl)-4-isoxazolyl]methyl}oxy)phenyl]-3-isoquinolinecarboxylic acid], for which the EC50 is 0.102 to 1 µM.

Regarding `Cc1cc(C(=O)O)nc2ccc(-c3ccc(OCc4c(-c5c(Cl)cccc5Cl)noc4C(C)C)cc3)cc12` [Example 34, 6-[4-({[3-(2,6-Dichlorophenyl)-5-(1-methylethyl)-4-isoxazolyl]methyl}oxy)phenyl]-4-methyl-2-quinolinecarboxylic acid], the EC50 is less than 0.1 µM.

With `Cc1cccc(C)c1OCc1noc(C2CCC2)c1COc1ccc(-c2ccc3cc(C(=O)O)ncc3c2)cc1` [Example 17, 7-(4-{[(5-Cyclobutyl-3-{[(2,6-dimethylphenyl)oxy]methyl}-4-isoxazolyl)methyl]oxy}phenyl)-3-isoquinolinecarboxylic acid], the EC50 is 0.102 to 1 µM.

As to `Cc1cc(-c2ccc3nc(C(=O)O)ccc3c2)ccc1OCc1c(-c2c(Cl)cccc2Cl)noc1C(C)C` [Example 32, 6-[4-({[3-(2,6-Dichlorophenyl)-5-(1-methylethyl)-4-isoxazolyl]methyl}oxy)-3-methylphenyl]-2-quinolinecarboxylic acid], the EC50 was 0.102 to 1 µM.

On to `CC(C)c1onc(-c2c(Cl)cccc2Cl)c1COc1ccc(-c2ccc3cc(C(=O)O)cnc3c2)cc1` [Example 2, 7-[4-({[3-(2,6-Dichlorophenyl)-5-(1-methylethyl)-4-isoxazolyl]methyl}oxy)phenyl]-3-quinolinecarboxylic acid], for which the EC50 is 0.102 to 1 µM.

For the compound `CC(C)c1onc(-c2c(Cl)cccc2Cl)c1CSc1ccc(-c2ccc3nc(C(=O)O)ccc3c2)cc1` [Example 38, 6-[4-({[3-(2,6-Dichlorophenyl)-5-(1-methylethyl)-4-isoxazolyl]methyl}thio)phenyl]-2-quinolinecarboxylic acid], the EC50 is 0.102 to 1 µM.

As to `O=C(O)c1ccc2cc(-c3ccc(OCc4c(-c5c(Cl)cncc5Cl)noc4C4CCC4)cc3)ccc2n1` [Example 8], the EC50 was 0.102 to 1 µM.

Take `Cc1cc2cc(-c3ccc(OCc4c(-c5c(Cl)cccc5Cl)noc4C(C)C)cc3)ccc2nc1C(=O)O` [Example 31, 6-[4-({[3-(2,6-dichlorophenyl)-5-(1-methylethyl)-4-isoxazolyl]methyl}oxy)phenyl]-3-methyl-2-quinolinecarboxylic acid]: the EC50 was 0.102 to 1 µM.

Consider `CC(C)c1onc(CNc2c(Cl)cccc2Cl)c1COc1ccc(-c2ccc3nc(C(=O)O)ccc3c2)cc1` [Example 21, 6-[4-({[3-{[(2,6-Dichlorophenyl)amino]methyl}-5-(1-methylethyl)-4-isoxazolyl]methyl}oxy)phenyl]-2-quinolinecarboxylic acid], for which the EC50 is 0.102 to 1 µM.
